Measurements taken from PubChem BioAssay (NCI).
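In this assay, cells in 96-well plates receive the compound at five concentrations for 48 hours. Endpoints are linearly interpolated between the surrounding concentrations. Abbreviation: GI50, concentration required for 50% inhibition of growth. TGI is the concentration that stops growth completely.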

Assays:
Test in all cases: NCI-60 cell line screen, 48 h
SF-295 CNS = test system: SF-295 CNS
HOP-92 NSCLC = test system: HOP-92 NSCLC
CAKI-1 renal = test system: CAKI-1 renal
EKVX NSCLC = test system: EKVX NSCLC
A549 NSCLC = test system: A549 NSCLC
RPMI-8226 leukemia = test system: RPMI-8226 leukemia
NCI-H23 lung = test system: NCI-H23 lung
NCI-H460 lung = test system: NCI-H460 lung
UO-31 renal = test system: UO-31 renal
OVCAR-5 ovarian = test system: OVCAR-5 ovarian

| Compound | GI50 (SF-295 CNS) | TGI (SF-295 CNS) | GI50 (HOP-92 NSCLC) | TGI (HOP-92 NSCLC) | GI50 (CAKI-1 renal) | TGI (CAKI-1 renal) | GI50 (EKVX NSCLC) | TGI (EKVX NSCLC) | GI50 (A549 NSCLC) | TGI (A549 NSCLC) | GI50 (RPMI-8226 leukemia) | TGI (RPMI-8226 leukemia) | GI50 (NCI-H23 lung) | TGI (NCI-H23 lung) | GI50 (NCI-H460 lung) | TGI (NCI-H460 lung) | GI50 (UO-31 renal) | TGI (UO-31 renal) | GI50 (OVCAR-5 ovarian) | TGI (OVCAR-5 ovarian) |
| --- | --- | --- | --- | --- | --- | --- | --- | --- | --- | --- | --- | --- | --- | --- | --- | --- | --- | --- | --- | --- |
| O=C(c1ccc2ccccc2c1)c1c(C(F)(F)F)n([O-])c2cc(F)c(F)cc2[n+]1=O | 2.02 µM | 4.9 µM | 1.84 µM | 3.46 µM | 1.82 µM | 3.97 µM | 2.46 µM | 6.43 µM | 4.33 µM | 16.4 µM | 1.12 µM | 3.79 µM | 2.62 µM | 9.29 µM | 3.74 µM | 88.9 µM | 1.02 µM | 2.68 µM | 2.01 µM | 4.4 µM |
| CCOC(=O)C1=C(c2ccccc2)N(C)c2ccccc2S1 | – | > 100 µM | – | > 100 µM | – | > 100 µM | – | > 100 µM | – | > 100 µM | – | 66.5 µM | – | 60.4 µM | – | 63.6 µM | – | 81 µM | – | > 100 µM |
| Cc1ccc(/C(=N\N=C(N)N)c2ccccc2)cc1 | 0.306 µM | 3.15 µM | 1.68 µM | 20.2 µM | 0.843 µM | 20.1 µM | 0.998 µM | 26 µM | 0.433 µM | 17.3 µM | 0.692 µM | 42.7 µM | 0.597 µM | 9.98 µM | 0.33 µM | 3.19 µM | 1.12 µM | 17.1 µM | 0.83 µM | 18.3 µM |
| C[C@H](NC(=O)[C@@H]1CSSC[C@@H](NC(=O)c2nc3ccccc3cc2O)C(=O)NCC(=O)N1C)c1ccccc1 | 7.44 µM | 16.3 µM | 9.69 µM | 18.6 µM | 7.24 µM | 18.5 µM | 3.48 µM | 11.8 µM | 7.06 µM | 15.8 µM | 5.67 µM | 21.5 µM | 5.14 µM | 12.6 µM | 1.25 µM | 7.98 µM | 5.76 µM | 13.3 µM | 4.35 µM | 12.1 µM |
| C=C(CCCCCCCCC)CC(=O)SCCNC(=O)CCNC(=O)C(O)C(C)(C)COP(=O)(O)OP(=O)(O)OCC1OC(n2cnc3c(N)ncnc32)C(O)C1OP(=O)(O)O (configuration not stated) | – | > 100 µM | – | > 100 µM | – | > 100 µM | – | > 100 µM | – | > 100 µM | – | 62.7 µM | – | > 100 µM | – | > 100 µM | – | > 100 µM | – | > 100 µM |
| CCn1c(C(=O)N(C2CC2)C2CC2)cc2c3c(ncn3C)c(Nc3cc(C)n(C)n3)nc21 | > 100 µM | > 100 µM | > 100 µM | > 100 µM | 16.8 µM | > 100 µM | > 100 µM | > 100 µM | > 100 µM | > 100 µM | > 100 µM | > 100 µM | > 100 µM | > 100 µM | > 100 µM | > 100 µM | > 38.5 µM | > 100 µM | > 100 µM | > 100 µM |
| COc1cc(/C=C\c2ccc(C)cc2)cc(OC)c1OC | 0.00818 µM | – | 0.0233 µM | 4.13 µM | 0.0235 µM | > 53.8 µM | < 0.022 µM | > 100 µM | – | > 100 µM | – | 25.2 µM | – | 0.276 µM | – | 0.232 µM | – | – | – | > 91.5 µM |
